Measurements from patent publication US4599337A, “Antiphlogistic/antipyretic/analgesic agents containing theobromine or theophylline derivatives as active ingredient” (Eisai Co., Ltd., priority 1985, dated 1986).
Where two headings read alike, the source gives them in different places.

How the values were obtained:
ddy-strain male mice = experiment: Analgesic activity, acetic acid writhing method; type: in vivo, mouse (ddy-strain male); settings: p.o.; for Analgesic activity ED50: acetic acid writhing
Protocol: (a) Acetic acid writhing method^1
A 0.7% acetic acid solution was injected intraperitoneally to ddy-strain male mice (20 to 25 g) in an amount of 0.1 ml per 10 g mouse body weight to cause a writhing syndrome typified by stretching of the hind legs. The inhibitory action of each test compound against said symptom was observed as a measure of the analgesic activity of the compound. In the tests, each of the compounds of this invention and each of the control drugs listed below were administered orally to each test animal, and 50 minutes later said acetic acid solution was injected in the manner described above and the total number of typical writhes was determined over a period of 15 minutes.

SD male rats [1] = experiment: Analgesic activity, bradykinin-induced pain response; type: in vivo, rat (SD male); settings: p.o.; for Safety margin (LD50 /ED50): Table 2, rats; for Analgesic activity ED50 / Saftety margin (LD50 /ED50): Table 4, rats
Protocol: (b) Bradykinin-induced pain response^3,4
A polyethylene tube was inserted into a common right carotid artery of SD male rats (250 to 350 g) and 0.5 microngram per 0.1 ml of bradykinin was injected into the artery through said tube. Response induced by bradykinin such as flexin of the right forelimb, dextro-rotation of the head and rearing were considered as being indices of pain response, and the analgesic action of each test compound was determined by observing its inhibition of responses such symptoms.

SD male rats [2] = experiment: Antipyretic activity, dry yeast-induced fever; type: in vivo, rat (SD male); settings: Rattus norvegicus, po, p.o.
Protocol: A 2% suspension of dry yeast was injected subcutaneously to SD male rats of 250 to 300 g body weight in an amount of 2 ml/animal to cause a fever, and 4 hours later, the compounds of this invention and control drugs were administered orally. The rectal temperature of each rat was measured periodically, and the dosage of each compound required to reduce the fever by more than 1° C. at the peak of its activity was determined.

ddy male mice = settings: p.o., given in Japan National Formulary, 6th Ed. (1982), 4320 min, cited from earlier work
SD male rats [3] = settings: p.o., given in Japan National Formulary, 6th Ed. (1982), 10080 min, cited from earlier work
Wistar rats = experiment: Antiphlogistic activity, carrageenin paw edema; type: in vivo, rat (Wistar); settings: Rattus norvegicus, po, 3 h
Protocol: Each test compound of this invention was administered orally to Wistar rats of about 300 g body weight, and 30 minutes later 0.05 ml of a 1% carrageenin solution was injected into a paw of each rat.

Acute toxicity in mice = experiment: Acute toxicity in mice; design: species or system mouse (ddy male); settings: mouse, in vivo, po
Protocol: (§1) Ten mice were used for each dose and morality was determined for 3 days after administration of each test compound of the invention. In the case of the rats, 5 rats were used for each dose and morality was determined 7 days after administrations.

Acute toxicity in rats = experiment: Acute toxicity in rats; design: species or system rat (SD male); settings: rat, in vivo, po
Protocol: as §1

[4] = rats, read-out: effective dose ED for reducing the fever by more than 1° C. at the peak of its activity
[5] = Table 5, rats, read-out: ED (effective dose for reducing the fever by more than 1° C. when the compound action is at the peak)

COc1cc(C)nc(-n2nc(C)cc2OC)n1 [Control drug I, 4-methoxy-2-(5-methoxy-3-methylpyrazol-1-yl)-6-methylpyrimidine]
Safety margin (LD50 /ED50) (ddy-strain male mice; Table 1, mice): 4.3 | Safety margin (LD50 /ED50) (ddy-strain male mice; Table 3, mice): 4.3 | Analgesic activity ED50 (ddy-strain male mice; Table 3, mice): 240 mg/kg | Safety margin (LD50 /ED50) (SD male rats [1]): ≤ 3 | Analgesic activity ED50 (SD male rats [1]): ≥ 160 mg/kg | Saftety margin (LD50 /ED50) (SD male rats [1]): ≤ 3 | ED (fever reduced by more than 1 degC) (SD male rats [2]; [4]): 40 mg/kg | ED (fever reduced by more than 1 degC) (SD male rats [2]; [5]): 40 mg/kg | Acute toxicity LD50 (ddy male mice; Table 1, mice): 1,022 mg/kg | Acute toxicity LD50 (ddy male mice; Table 3, mice): 1022 mg/kg | Acute toxicity LD50 (SD male rats [3]; Table 2, rats): 526 mg/kg | Acute toxicity LD50 (SD male rats [3]; Table 4, rats): 526 mg/kg

Cn1c(=O)c2c(ncn2CCCCN2CCN(c3ccc(F)cc3)CC2)n(C)c1=O [Compound A]
ED (fever reduced by more than 1 degC) (SD male rats [2]; [5]): 10 mg/kg | ED30 (Wistar rats; Table 6, rats): 10 mg/kg | LD50 at 72 h (Acute toxicity in mice; Table 1, mice): 344 mg/kg | LD50 at 168 h (Acute toxicity in rats; Table 2, rats): 353 to 500 mg/kg

Cn1c(=O)c2c(ncn2CCCCN2CCN(c3ccc(Cl)cc3)CC2)n(C)c1=O [Compound D]
ED (fever reduced by more than 1 degC) (SD male rats [2]; [5]): 40 mg/kg | ED30 (Wistar rats; Table 6, rats): 25 mg/kg | LD50 at 72 h (Acute toxicity in mice; Table 1, mice): 575 mg/kg | LD50 at 168 h (Acute toxicity in rats; Table 2, rats): 505 mg/kg

Cc1cccc(N2CCN(CCCCCn3c(=O)c4c(ncn4C)n(C)c3=O)CC2)c1 [Compound G', 1-(5-(4-m-methylphenylpiperazinyl-(1))-n-pentyl)theobromine.2HCl]
Safety margin (LD50 /ED50) (ddy-strain male mice; Table 3, mice): 22 | ED30 (Wistar rats; Table 7, rats): 25 mg/kg | LD50 at 72 h (Acute toxicity in mice; Table 3, mice): 300 mg/kg

Cn1cnc2c1c(=O)n(CCCN1CCN(c3ccccc3Cl)CC1)c(=O)n2C [Compound C', 1-(3-(4-o-chlorophenylpiperazinyl-(1))-n-propyl)theobromine.2HCl]
ED30 (Wistar rats; Table 7, rats): 10 mg/kg | LD50 at 72 h (Acute toxicity in mice; Table 3, mice): 200 mg/kg

O=C(Cn1c(=O)sc2ccc(Cl)cc21)N1CCN(CCO)CC1 [Control drug II, 4-((5-chloro-2-oxo-3(2H)-benzothiazolyl)acetyl)-1-piperazineethanol]
Safety margin (LD50 /ED50) (ddy-strain male mice; Table 1, mice): 8.5 | Safety margin (LD50 /ED50) (ddy-strain male mice; Table 3, mice): 8.5 | Analgesic activity ED50 (ddy-strain male mice; Table 3, mice): 66 mg/kg | Safety margin (LD50 /ED50) (SD male rats [1]): ≤ 23 | Analgesic activity ED50 (SD male rats [1]): ≥ 160 mg/kg | Saftety margin (LD50 /ED50) (SD male rats [1]): ≤ 23 | ED (fever reduced by more than 1 degC) (SD male rats [2]; [4]): 40 mg/kg | ED (fever reduced by more than 1 degC) (SD male rats [2]; [5]): 40 mg/kg | Acute toxicity LD50 (ddy male mice; Table 1, mice): 664 mg/kg | Acute toxicity LD50 (ddy male mice; Table 3, mice): 564 mg/kg

Cn1cnc2c1c(=O)n(CCCCN1CCN(c3ccc(Cl)c(Cl)c3)CC1)c(=O)n2C [Compound F', 1-(4-(4-(3,4-dichlorophenyl)piperazinyl-(1))-n-butyl)theobromine.2HCl]
LD50 at 72 h (Acute toxicity in mice; Table 3, mice): 400 to 800 mg/kg

Cc1cccc(N2CCN(CCn3c(=O)c4c(ncn4C)n(C)c3=O)CC2)c1C [Compound B', 1-(2-(4-(2,3-dimethylphenyl)piperazinyl-(1))-ethyl)theobromine.2HCl]
LD50 at 72 h (Acute toxicity in mice; Table 3, mice): 600 mg/kg | LD50 at 168 h (Acute toxicity in rats; Table 4, rats): ≥ 2000 mg/kg

Cc1ccc(N2CCN(CCCn3cnc4c3c(=O)n(C)c(=O)n4C)CC2)cc1C [Compound C]
ED (fever reduced by more than 1 degC) (SD male rats [2]; [5]): 10 mg/kg | LD50 at 72 h (Acute toxicity in mice; Table 1, mice): ≥ 800 mg/kg | LD50 at 168 h (Acute toxicity in rats; Table 2, rats): 770 mg/kg

COc1ccccc1N1CCN(CCCCn2c(=O)c3c(ncn3C)n(C)c2=O)CC1 [Compound D', 1-(4-(4-o-methoxyphenylpiperazinyl-(1))-n-butyl)theobromine.2HCl]
LD50 at 72 h (Acute toxicity in mice; Table 3, mice): 400 to 800 mg/kg

Cn1cnc2c1c(=O)n(CCCN1CCN(c3ccc(Cl)c(Cl)c3)CC1)c(=O)n2C [Compound A', 1-(3-(4-(3,4-dichlorophenyl)piperazinyl-(1))-n-propyl)theobromine]
ED (fever reduced by more than 1 degC) (SD male rats [2]; [4]): 40 mg/kg | ED30 (Wistar rats; Table 7, rats): 25 mg/kg

Cn1cnc2c1c(=O)n(CCCCN1CCN(c3ccc(F)cc3)CC1)c(=O)n2C [Compound E', 1-(4-(4-p-fluoropenylpiperazinyl-(1))-n-butyl)theobromine.2HCl]
ED30 (Wistar rats; Table 7, rats): 25 mg/kg | LD50 at 72 h (Acute toxicity in mice; Table 3, mice): 200 mg/kg

Cn1c(=O)c2c(ncn2CCCCCN2CCN(c3cccc(C(F)(F)F)c3)CC2)n(C)c1=O [Compound F]
ED (fever reduced by more than 1 degC) (SD male rats [2]; [5]): 10 mg/kg | ED30 (Wistar rats; Table 6, rats): 25 mg/kg | LD50 at 72 h (Acute toxicity in mice; Table 1, mice): ≥ 800 mg/kg | LD50 at 168 h (Acute toxicity in rats; Table 2, rats): 660 mg/kg

OC(CN1CCCCC1)c1cc(-c2ccccc2)on1 (centres unmarked) [Control drug III, 3-(1-hydroxy-2-piperadinoethyl)-5-phenyl-isoxazole]
Safety margin (LD50 /ED50) (ddy-strain male mice; Table 1, mice): 5.1 | Safety margin (LD50 /ED50) (ddy-strain male mice; Table 3, mice): 5.1 | Analgesic activity ED50 (ddy-strain male mice; Table 3, mice): 120 mg/kg | Safety margin (LD50 /ED50) (SD male rats [1]): 12 | Saftety margin (LD50 /ED50) (SD male rats [1]): 12 | ED (fever reduced by more than 1 degC) (SD male rats [2]; [4]): 160 mg/kg | ED (fever reduced by more than 1 degC) (SD male rats [2]; [5]): 160 mg/kg | Acute toxicity LD50 (ddy male mice; Table 1, mice): 612 mg/kg | Acute toxicity LD50 (ddy male mice; Table 3, mice): 612 mg/kg | Acute toxicity LD50 (SD male rats [3]; Table 2, rats): 1,978 mg/kg | Acute toxicity LD50 (SD male rats [3]; Table 4, rats): 1,978 mg/kg

Cn1c(=O)c2c(ncn2CCCCCN2CCN(c3ccc(Cl)cc3)CC2)n(C)c1=O [Compound B]
ED (fever reduced by more than 1 degC) (SD male rats [2]; [5]): 40 mg/kg | ED30 (Wistar rats; Table 6, rats): 50 mg/kg | LD50 at 72 h (Acute toxicity in mice; Table 1, mice): 704 mg/kg | LD50 at 168 h (Acute toxicity in rats; Table 2, rats): 353 to 500 mg/kg
